Where two headings read alike, the source gives them in different places.
Columns and labels:
[1] = propylene glycol as low-dose additive (less than 10%)
[2] = Experimental: Solutions of lisuride hydrogen maleate with a concentration of 2 mg active ingredient per 3 mL solution were investigated with regard to their temperature-dependent stability. These solutions were buffered using a citrate buffer system, so that the pH value of the pure medium was adjusted to 5.1, 4.5 and 3.5. Aqueous solutions of citric acid monohydrate and trisodium citrate dihydrate (0.53 mM each) were prepared.
Suitable mixing of these solutions yielded aqueous buffer systems with a pH of 4.5 and/or 3.5. After 33.3 mg lisuride hydrogen maleate had been weighed out in a scaled 50 mL flask, 40 mL of the corresponding buffer medium was added. The flasks were agitated for several minutes and then exposed to ultrasound for several minutes until the active ingredient was completely dissolved. The solutions were cooled to room temperature and topped off to the mark with buffer medium.
In the case of the more strongly basic medium (pH 5.1), a supply solution was prepared, containing citric acid monohydrate (0.38 mM) and trisodium citrate dihydrate (0.68 mM). This was used to dissolve the active ingredient. In principle, double-distilled water was used to prepare the solutions.
The resulting solutions were stored under three different conditions: under refrigeration at 6 to 8° C., at room temperature (25° C.) and at an elevated temperature of 40° C. The solutions were stored in sealed glass ampoules which were wrapped with aluminum foil for protection from light. After suitable intervals of time, samples were analyzed by means of a specific reverse phase HPLC method with UV detection (running time 30 min, retention time of lisuride ˜13 min).

[3] = 9% propylene glycol; for Average area (percent of lisuride peak area relative to total peak area): no buffer
Experimental: An aqueous solution of lisuride hydrogen maleate which additionally contained 9% propylene glycol was investigated. The active ingredient concentration was adjusted to 2 mg per 3 mL. No buffer system was added. The remaining procedure included weighing 33.3 mg of the active ingredient into a scaled 50 mL flask, then adding the propylene glycol (4.5 g) and also adding 40 mL water. The flask was agitated for several minutes and then exposed to ultrasound until the active ingredient was completely dissolved. The flask was cooled to room temperature and topped off with double-distilled water up to the mark.
The solution was poured into transparent glass ampoules with a volume of 1 mL. These ampoules were sealed airtight and wrapped with aluminum foil to protect them from light. The ampoules were each stored at 6-8° C., 25° C. and 40° C.

[4] = 60° C., one week, dark
Experimental: The additives used were propylene glycol and Cremophor ELP in concentrations between 1.00% and 10.00%.
The solutions were prepared by analogy with the procedure used in examples 1 and 2.
The solutions were stored in the dark in glass containers at 60° C. for one week.

Q: For `CCN(CC)C(=O)N[C@H]1C=C2c3cccc4[nH]cc(c34)C[C@H]2N(C)C1.O=C(O)/C=C\C(=O)O` [lisuride hydrogen maleate], which “solubility of the active ingredient with propylene glycol” value [1] is on record?
A: improved solubility

Q: And the “Average area (percent of lisuride peak area relative to total peak area)” value ([2]; citrate buffer pH 3.5, 6-8° C., t 0 d)?
A: 99.87%

Q: And the “Average area (percent of lisuride peak area relative to total peak area)” value ([2]; citrate buffer pH 3.5, 6-8° C., t 7 d)?
A: 99.92%

Q: What about the “Average area (percent of lisuride peak area relative to total peak area)” value ([2]; citrate buffer pH 3.5, 6-8° C., t 30 d) of the same molecule?
A: 99.80%

Q: What about the “Average area (percent of lisuride peak area relative to total peak area)” value ([2]; citrate buffer pH 3.5, 6-8° C., t 90 d) of the same molecule?
A: 99.57%

Q: And the “Average area (percent of lisuride peak area relative to total peak area)” value ([2]; citrate buffer pH 3.5, 6-8° C., t 180 d)?
A: 99.22%

Q: What about the “Average area (percent of lisuride peak area relative to total peak area)” value ([2]; citrate buffer pH 3.5, 25° C., t 0 d) of the same molecule?
A: 99.87%

Q: What about the “Average area (percent of lisuride peak area relative to total peak area)” value ([2]; citrate buffer pH 3.5, 25° C., t 7 d) of the same molecule?
A: 99.89%

Q: What about the “Average area (percent of lisuride peak area relative to total peak area)” value ([2]; citrate buffer pH 3.5, 25° C., t 30 d) of the same molecule?
A: 99.37%

Q: What about the “Average area (percent of lisuride peak area relative to total peak area)” value ([2]; citrate buffer pH 3.5, 25° C., t 90 d) of the same molecule?
A: 98.70%

Q: And the “Average area (percent of lisuride peak area relative to total peak area)” value ([2]; citrate buffer pH 3.5, 25° C., t 180 d)?
A: 94.14%

Q: And the “Average area (percent of lisuride peak area relative to total peak area)” value ([2]; citrate buffer pH 3.5, 40° C., t 0 d)?
A: 99.87%

Q: What about the “Average area (percent of lisuride peak area relative to total peak area)” value ([2]; citrate buffer pH 3.5, 40° C., t 7 d) of the same molecule?
A: 98.89%

Q: And the “Average area (percent of lisuride peak area relative to total peak area)” value ([2]; citrate buffer pH 3.5, 40° C., t 30 d)?
A: 90.41%

Q: What about the “Average area (percent of lisuride peak area relative to total peak area)” value ([2]; citrate buffer pH 3.5, 40° C., t 90 d) of the same molecule?
A: 73.37%

Q: What about the “Average area (percent of lisuride peak area relative to total peak area)” value ([2]; citrate buffer pH 3.5, 40° C., t 180 d) of the same molecule?
A: 69.91%

Q: What about the “Average area (percent of lisuride peak area relative to total peak area)” value ([2]; citrate buffer pH 4.5, 6-8° C., t 0 d) of the same molecule?
A: 99.79%

Q: What about the “Average area (percent of lisuride peak area relative to total peak area)” value ([2]; citrate buffer pH 4.5, 6-8° C., t 7 d) of the same molecule?
A: 99.88%

Q: What about the “Average area (percent of lisuride peak area relative to total peak area)” value ([2]; citrate buffer pH 4.5, 6-8° C., t 30 d) of the same molecule?
A: 99.73%

Q: What about the “Average area (percent of lisuride peak area relative to total peak area)” value ([2]; citrate buffer pH 4.5, 6-8° C., t 90 d) of the same molecule?
A: 99.75%

Q: And the “Average area (percent of lisuride peak area relative to total peak area)” value ([2]; citrate buffer pH 4.5, 6-8° C., t 180 d)?
A: 99.11%

Q: What about the “Average area (percent of lisuride peak area relative to total peak area)” value ([2]; citrate buffer pH 4.5, 25° C., t 0 d) of the same molecule?
A: 99.79%

Q: What about the “Average area (percent of lisuride peak area relative to total peak area)” value ([2]; citrate buffer pH 4.5, 25° C., t 7 d) of the same molecule?
A: 99.84%

Q: What about the “Average area (percent of lisuride peak area relative to total peak area)” value ([2]; citrate buffer pH 4.5, 25° C., t 30 d) of the same molecule?
A: 99.26%

Q: What about the “Average area (percent of lisuride peak area relative to total peak area)” value ([2]; citrate buffer pH 4.5, 25° C., t 90 d) of the same molecule?
A: 98.14%

Q: And the “Average area (percent of lisuride peak area relative to total peak area)” value ([2]; citrate buffer pH 4.5, 25° C., t 180 d)?
A: 95.90%

Q: What about the “Average area (percent of lisuride peak area relative to total peak area)” value ([2]; citrate buffer pH 4.5, 40° C., t 0 d) of the same molecule?
A: 99.79%

Q: What about the “Average area (percent of lisuride peak area relative to total peak area)” value ([2]; citrate buffer pH 4.5, 40° C., t 7 d) of the same molecule?
A: 98.82%

Q: And the “Average area (percent of lisuride peak area relative to total peak area)” value ([2]; citrate buffer pH 4.5, 40° C., t 30 d)?
A: 94.96%

Q: What about the “Average area (percent of lisuride peak area relative to total peak area)” value ([2]; citrate buffer pH 4.5, 40° C., t 90 d) of the same molecule?
A: 90.39%

Q: And the “Average area (percent of lisuride peak area relative to total peak area)” value ([2]; citrate buffer pH 4.5, 40° C., t 180 d)?
A: 87.71%

Q: What about the “Average area (percent of lisuride peak area relative to total peak area)” value ([2]; citrate buffer pH 5.1, 6-8° C., t 0 d) of the same molecule?
A: 100.00%

Q: And the “Average area (percent of lisuride peak area relative to total peak area)” value ([2]; citrate buffer pH 5.1, 6-8° C., t 7 d)?
A: 99.90%

Q: And the “Average area (percent of lisuride peak area relative to total peak area)” value ([2]; citrate buffer pH 5.1, 6-8° C., t 30 d)?
A: 99.72%

Q: And the “Average area (percent of lisuride peak area relative to total peak area)” value ([2]; citrate buffer pH 5.1, 6-8° C., t 90 d)?
A: 99.59%

Q: And the “Average area (percent of lisuride peak area relative to total peak area)” value ([2]; citrate buffer pH 5.1, 6-8° C., t 180 d)?
A: 99.29%

Q: And the “Average area (percent of lisuride peak area relative to total peak area)” value ([2]; citrate buffer pH 5.1, 25° C., t 0 d)?
A: 100.00%

Q: What about the “Average area (percent of lisuride peak area relative to total peak area)” value ([2]; citrate buffer pH 5.1, 25° C., t 7 d) of the same molecule?
A: 99.79%

Q: What about the “Average area (percent of lisuride peak area relative to total peak area)” value ([2]; citrate buffer pH 5.1, 25° C., t 30 d) of the same molecule?
A: 99.36%

Q: And the “Average area (percent of lisuride peak area relative to total peak area)” value ([2]; citrate buffer pH 5.1, 25° C., t 90 d)?
A: 98.64%

Q: And the “Average area (percent of lisuride peak area relative to total peak area)” value ([2]; citrate buffer pH 5.1, 25° C., t 180 d)?
A: 95.45%

Q: And the “Average area (percent of lisuride peak area relative to total peak area)” value ([2]; citrate buffer pH 5.1, 40° C., t 0 d)?
A: 100.00%

Q: What about the “Average area (percent of lisuride peak area relative to total peak area)” value ([2]; citrate buffer pH 5.1, 40° C., t 7 d) of the same molecule?
A: 98.86%

Q: And the “Average area (percent of lisuride peak area relative to total peak area)” value ([2]; citrate buffer pH 5.1, 40° C., t 30 d)?
A: 94.71%

Q: And the “Average area (percent of lisuride peak area relative to total peak area)” value ([2]; citrate buffer pH 5.1, 40° C., t 90 d)?
A: 90.99%

Q: And the “Average area (percent of lisuride peak area relative to total peak area)” value ([2]; citrate buffer pH 5.1, 40° C., t 180 d)?
A: 87.98%

Q: What about the “decomposition of the active ingredient” value ([2]; citrate-buffered (pH 5.1, 4.5, 3.5), room temperature, within 180 days) of the same molecule?
A: 5%

Q: What about the “decomposition of the active ingredient” value ([2]; citrate-buffered, storage at 40° C.) of the same molecule?
A: up to 30%

Q: What about the “decomposition of the active ingredient” value ([2]; citrate-buffered, storage under refrigeration) of the same molecule?
A: approximately 0.7%

Q: And the “discoloration of the solutions” value ([2]; citrate-buffered, stored at 40° C.)?
A: significant yellow discoloration after only 30 days, turning brown after another 60 days

Q: What about the “discoloration of the solutions” value ([3]; elevated temperature) of the same molecule?
A: slight yellow discoloration was observed only after a storage time of 90 days

Q: And the “Average area (percent of lisuride peak area relative to total peak area)” value ([3]; 6-8° C., t 0 d)?
A: 99.80%

Q: What about the “Average area (percent of lisuride peak area relative to total peak area)” value ([3]; 6-8° C., t 7 d) of the same molecule?
A: 99.79%

Q: What about the “Average area (percent of lisuride peak area relative to total peak area)” value ([3]; 6-8° C., t 30 d) of the same molecule?
A: 99.67%

Q: And the “Average area (percent of lisuride peak area relative to total peak area)” value ([3]; 6-8° C., t 90 d)?
A: 99.52%

Q: What about the “Average area (percent of lisuride peak area relative to total peak area)” value ([3]; 6-8° C., t 180 d) of the same molecule?
A: 99.36%

Q: What about the “Average area (percent of lisuride peak area relative to total peak area)” value ([3]; 25° C., t 0 d) of the same molecule?
A: 99.80%

Q: And the “Average area (percent of lisuride peak area relative to total peak area)” value ([3]; 25° C., t 7 d)?
A: 99.79%

Q: What about the “Average area (percent of lisuride peak area relative to total peak area)” value ([3]; 25° C., t 30 d) of the same molecule?
A: 99.46%

Q: What about the “Average area (percent of lisuride peak area relative to total peak area)” value ([3]; 25° C., t 90 d) of the same molecule?
A: 99.15%

Q: What about the “Average area (percent of lisuride peak area relative to total peak area)” value ([3]; 25° C., t 180 d) of the same molecule?
A: 98.35%

Q: And the “Average area (percent of lisuride peak area relative to total peak area)” value ([3]; 40° C., t 0 d)?
A: 99.80%

Q: And the “Average area (percent of lisuride peak area relative to total peak area)” value ([3]; 40° C., t 7 d)?
A: 99.33%

Q: And the “Average area (percent of lisuride peak area relative to total peak area)” value ([3]; 40° C., t 30 d)?
A: 97.59%

Q: And the “Average area (percent of lisuride peak area relative to total peak area)” value ([3]; 40° C., t 90 d)?
A: 94.06%

Q: What about the “Average area (percent of lisuride peak area relative to total peak area)” value ([3]; 40° C., t 180 d) of the same molecule?
A: 89.76%

Q: And the active ingredient decomposed ([3]; refrigeration, 180 days)?
A: approximately 0.4%

Q: What about the “remaining active ingredient content in comparison with the initial concentration” value ([3]; room temperature, 180 days) of the same molecule?
A: 98.4%

Q: What about the active ingredient decomposed ([3]; storage at 40° C.) of the same molecule?
A: approximately 10%

Q: What about the “stability compared with solutions without propylene glycol (Example 1)” value ([3]; 6-8° C., 25° C. and 40° C.) of the same molecule?
A: significantly more stable

Q: What about the “degradation of the active ingredient” value ([4]; 1% Cremophor ELP) of the same molecule?
A: 14.3%

Q: What about the “degradation of the active ingredient” value ([4]; 10% Cremophor ELP) of the same molecule?
A: 21.3%

Q: What about the “remaining active ingredient content” value ([4]; propylene glycol) of the same molecule?
A: 92.5%

From patent US20090239894A1, “Stabilized aqueous solutions of ergoline compounds” (priority 2008, published 2009)
